Results as given in ChEMBL document CHEMBL3822390, “Synthesis, characterization and anti-cancer activity of a peptide nucleolipid bioconjugate” (2016).

Tests used:
Format in all cases: functional
[1] = Cytotoxicity against human HCT15 cells assessed as cell growth at 10 uM after 48 hrs by SRB assay; settings: HCT-15, 48 h, read-out: Activity
MCF7 [2] = assay: Cytotoxicity against human MCF7 cells assessed as cell growth at 10 uM after 48 hrs by SRB assay; settings: MCF7, 48 h, read-out: Activity
NCI-H460 = assay: Cytotoxicity against human NCI-H460 cells assessed as cell growth at 10 uM after 48 hrs by SRB assay; settings: NCI-H460, 48 h, read-out: Activity
SK-MEL-28 [3] = assay: Cytotoxicity against human SK-MEL-28 cells assessed as cell growth at 10 uM after 48 hrs by SRB assay; settings: SK-MEL-28, 48 h, read-out: Activity
[4] = Cytotoxicity against human OVCAR4 cells assessed as cell growth at 10 uM after 48 hrs by SRB assay; settings: OVCAR-4, 48 h, read-out: Activity
M14 [5] = assay: Cytotoxicity against human M14 cells assessed as cell growth at 10 uM after 48 hrs by SRB assay; settings: M14, 48 h, read-out: Activity
A498 = assay: Cytotoxicity against human A498 cells assessed as cell growth at 10 uM after 48 hrs by SRB assay; settings: A498, 48 h, read-out: Activity
[6] = Cytotoxicity against human HCC2998 cells assessed as cell growth at 10 uM after 48 hrs by SRB assay; settings: HCC 2998, 48 h, read-out: Activity
A549 [7] = assay: Cytotoxicity against human A549 cells assessed as cell mortality at 10 uM after 48 hrs by SRB assay; settings: A549, 48 h
[8] = Cytotoxicity against human HCT116 cells assessed as cell growth at 10 uM after 48 hrs by SRB assay; settings: HCT-116, 48 h, read-out: Activity
ACHN [9] = assay: Cytotoxicity against human ACHN cells assessed as cell growth at 10 uM after 48 hrs by SRB assay; settings: read-out: Activity
MDA-MB-468 = assay: Cytotoxicity against human MDA-MB-468 cells assessed as cell growth at 10 uM after 48 hrs by SRB assay; settings: MDA-MB-468, 48 h, read-out: Activity
[10] = Cytotoxicity against human OVCAR5 cells assessed as cell growth at 10 uM after 48 hrs by SRB assay; settings: OVCAR-5, 48 h, read-out: Activity
SR [11] = assay: Cytotoxicity against human SR cells assessed as cell growth at 10 uM after 48 hrs by SRB assay; settings: read-out: Activity
[12] = Cytotoxicity against human OVCAR3 cells assessed as cell growth at 10 uM after 48 hrs by SRB assay; settings: OVCAR-3, 48 h, read-out: Activity
SR [13] = assay: Cytotoxicity against human SR cells assessed as cell growth at 7.25 uM after 48 hrs by SRB assay; settings: read-out: Activity
[14] = Cytotoxicity against human TK10 cells assessed as cell growth at 7.25 uM after 48 hrs by SRB assay; settings: TK-10, 48 h, read-out: Activity
ACHN [15] = assay: Cytotoxicity against human ACHN cells assessed as cell growth at 7.25 uM after 48 hrs by SRB assay; settings: read-out: Activity
[16] = Cytotoxicity against human RXF393 cells assessed as cell growth at 7.25 uM after 48 hrs by SRB assay; settings: RXF 393, 48 h, read-out: Activity
[17] = Cytotoxicity against human IGROV1 cells assessed as cell growth at 7.25 uM after 48 hrs by SRB assay; settings: IGROV-1, 48 h, read-out: Activity
SK-MEL-28 [18] = assay: Cytotoxicity against human SK-MEL-28 cells assessed as cell growth at 7.25 uM after 48 hrs by SRB assay; settings: SK-MEL-28, 48 h, read-out: Activity
A549 [19] = assay: Cytotoxicity against human A549 cells assessed as cell growth at 7.25 uM after 48 hrs by SRB assay; settings: A549, 48 h, read-out: Activity
[20] = Cytotoxicity against human OVCAR5 cells assessed as cell growth at 7.25 uM after 48 hrs by SRB assay; settings: OVCAR-5, 48 h, read-out: Activity
[21] = Cytotoxicity against human MOLT4 cells assessed as cell growth at 7.25 uM after 48 hrs by SRB assay; settings: MOLT-4, 48 h, read-out: Activity
M14 [22] = assay: Cytotoxicity against human M14 cells assessed as cell growth at 7.25 uM after 48 hrs by SRB assay; settings: M14, 48 h, read-out: Activity
KM12 = assay: Cytotoxicity against human KM12 cells assessed as cell growth at 7.25 uM after 48 hrs by SRB assay; settings: KM12, 48 h, read-out: Activity
Malme-3M = assay: Cytotoxicity against human MALME-3M cells assessed as cell growth at 7.25 uM after 48 hrs by SRB assay; settings: read-out: Activity
MDA-MB-231 = assay: Cytotoxicity against human MDA-MB-231 cells assessed as cell growth at 7.25 uM after 48 hrs by SRB assay; settings: MDA-MB-231, 48 h, read-out: Activity
[23] = Cytotoxicity against human RPMI8226 cells assessed as cell growth at 2.13 uM after 48 hrs by SRB assay; settings: RPMI-8226, 48 h, read-out: Activity
[24] = Cytotoxicity against human COLO205 cells assessed as cell growth at 2.13 uM after 48 hrs by SRB assay; settings: COLO 205, 48 h, read-out: Activity
MCF7 [25] = assay: Cytotoxicity against human MCF7 cells assessed as cell growth at 2.13 uM after 48 hrs by SRB assay; settings: MCF7, 48 h, read-out: Activity
[26] = Cytotoxicity against human SKOV3 cells assessed as cell growth at 2.13 uM after 48 hrs by SRB assay; settings: SK-OV-3, 48 h, read-out: Activity
[27] = Cytotoxicity against human MOLT4 cells assessed as cell growth at 2.13 uM after 48 hrs by SRB assay; settings: MOLT-4, 48 h, read-out: Activity
786-0 = assay: Cytotoxicity against human 786-0 cells assessed as cell growth at 2.13 uM after 48 hrs by SRB assay; settings: 786-0, 48 h, read-out: Activity
NCI-H522 = assay: Cytotoxicity against human NCI-H522 cells assessed as cell mortality at 2.13 uM after 48 hrs by SRB assay; settings: NCI-H522, 48 h
[28] = Cytotoxicity against human HCC2998 cells assessed as cell growth at 2.13 uM after 48 hrs by SRB assay; settings: HCC 2998, 48 h, read-out: Activity
K562 = assay: Cytotoxicity against human K562 cells assessed as cell growth at 2.13 uM after 48 hrs by SRB assay; settings: K562, 48 h, read-out: Activity
[29] = Cytotoxicity against human SW620 cells assessed as cell growth at 2.13 uM after 48 hrs by SRB assay; settings: SW-620, 48 h, read-out: Activity
[30] = Cytotoxicity against human DU145 cells assessed as cell growth at 2.13 uM after 48 hrs by SRB assay; settings: DU-145, 48 h, read-out: Activity
[31] = Cytotoxicity against human SF539 cells assessed as cell growth at 2.13 uM after 48 hrs by SRB assay; settings: SF-539, 48 h, read-out: Activity
[32] = Cytotoxicity against human SNB75 cells assessed as cell growth at 2.13 uM after 48 hrs by SRB assay; settings: SNB-75, 48 h, read-out: Activity

## CC(C)C[C@H](NC(=O)[C@H](CCCCN)NC(=O)[C@H](C)NC(=O)[C@H](CC(C)C)NC(=O)[C@H](CCCCN)NC(=O)[C@H](CCCCN)NC(=O)[C@H](C)NC(=O)[C@H](CC(C)C)NC(=O)[C@H](CCCCN)NC(=O)[C@H](C)NC(=O)[C@H](CC(C)C)NC(=O)[C@H](CCCCN)NC(=O)[C@@H](N)CC(=O)O)C(=O)N[C@@H](C)C(=O)N[C@@H](CCCCN)C(=O)N[C@@H](C)C(=O)N[C@@H](CCCCN)C(N)=O
[1]
  growth at 10 µM: 108%
MCF7 [2]
  growth at 10 µM: 96.7%
NCI-H460
  growth at 10 µM: 117%
SK-MEL-28 [3]
  growth at 10 µM: 104%
[4]
  growth at 10 µM: 109%
M14 [5]
  growth at 10 µM: 108%
A498
  growth at 10 µM: 115%
[6]
  growth at 10 µM: 100%
A549 [7]
  mortality at 10 µM: 19%
[8]
  growth at 10 µM: 92.1%
ACHN [9]
  growth at 10 µM: 107%
MDA-MB-468
  growth at 10 µM: 100%
[10]
  growth at 10 µM: 98.6%
SR [11]
  growth at 10 µM: 85%
[12]
  growth at 10 µM: 100%

## CCCCCCCCCCCCCCCC(=O)NCCCC[C@H](NC(=O)[C@H](C)NC(=O)[C@H](CCCCN)NC(=O)[C@H](C)NC(=O)[C@H](CC(C)C)NC(=O)[C@H](CCCCN)NC(=O)[C@H](C)NC(=O)[C@H](CC(C)C)NC(=O)[C@H](CCCCN)NC(=O)[C@H](CCCCN)NC(=O)[C@H](C)NC(=O)[C@H](CC(C)C)NC(=O)[C@H](CCCCN)NC(=O)[C@H](C)NC(=O)[C@H](CC(C)C)NC(=O)[C@H](CCCCN)NC(=O)[C@@H](N)CC(=O)O)C(N)=O
SR [13]
  growth at 7.25 µM: 91.9%
[14]
  growth at 7.25 µM: 92.1%
ACHN [15]
  growth at 7.25 µM: 99.3%
[16]
  growth at 7.25 µM: 111%
[17]
  growth at 7.25 µM: 108%
SK-MEL-28 [18]
  growth at 7.25 µM: 106%
A549 [19]
  growth at 7.25 µM: 67.6%
[20]
  growth at 7.25 µM: 105%
[21]
  growth at 7.25 µM: 97.6%
M14 [22]
  growth at 7.25 µM: 102%
KM12
  growth at 7.25 µM: 110%
Malme-3M
  growth at 7.25 µM: 102%
MDA-MB-231
  growth at 7.25 µM: 104%

## CCCCCCCCCCCCCCCCNCCO[C@H]1C[C@H](n2cc(C)c(=O)[nH]c2=O)O[C@@H]1C(=O)NCCCC[C@H](NC(=O)[C@H](C)NC(=O)[C@H](CCCCN)NC(=O)[C@H](C)NC(=O)[C@H](CC(C)C)NC(=O)[C@H](CCCCN)NC(=O)[C@H](C)NC(=O)[C@H](CC(C)C)NC(=O)[C@H](CCCCN)NC(=O)[C@H](CCCCN)NC(=O)[C@H](C)NC(=O)[C@H](CC(C)C)NC(=O)[C@H](CCCCN)NC(=O)[C@H](C)NC(=O)[C@H](CC(C)C)NC(=O)[C@H](CCCCN)NC(=O)[C@@H](N)CC(=O)O)C(N)=O
[23]
  growth at 2.13 µM: 104%
[24]
  growth at 2.13 µM: 109%
MCF7 [25]
  growth at 2.13 µM: 98.9%
[26]
  growth at 2.13 µM: 98.4%
[27]
  growth at 2.13 µM: 97.8%
786-0
  growth at 2.13 µM: 107%
NCI-H522
  mortality at 2.13 µM: 11%
[28]
  growth at 2.13 µM: 104%
K562
  growth at 2.13 µM: 106%
[29]
  growth at 2.13 µM: 108%
[30]
  growth at 2.13 µM: 109%
[31]
  growth at 2.13 µM: 98.8%
[32]
  growth at 2.13 µM: 96.1%
